Assay results from patent US12304897B2, “15-PGDH inhibitors” (KYORIN PHARMACEUTICAL CO., LTD., priority 2019, dated 2025).

Target: recombinant human 15-PGDH (Homo sapiens (Human), UniProt P15428)
Assay: 15-PGDH enzyme inhibition test
Assay type: biochemical
Conditions: 4 nM recombinant human 15-PGDH, 30 μM PGE2, 1 mM NAD+, fluorescence 340/440 nm after 60 min
Method: 15-PGDH Enzyme Inhibition Test
Test compounds and 4 nM recombinant human 15-PGDH (R&D systems) in 50 mM Tris-HCl (pH 8.0) containing 0.01% TWEEN 20 (Sigma) and 0.01% bovine gamma globulin (Sigma) were put into 384 Flat Bottom Black plates (Corning, 3820) and allowed to stand for 12 minutes at room temperature. Then, 30 μM PGE2 (Cayman chemical) and 1 mM NAD^+ (Sigma) were added to start reaction. Sixty minutes after the start of reaction, signals were measured at an excitation wavelength of 340 nm and a fluorescence emission wavelength of 440 nm using Synergy 2 (BioTeck). The intensity of the fluorescent signal obtained when an assay buffer was added in place of the test compounds and NAD^+ was defined as 100% and that obtained with the addition of NAD^+ was defined as 0%.

Sequence of recombinant human 15-PGDH (P15428 whole entry): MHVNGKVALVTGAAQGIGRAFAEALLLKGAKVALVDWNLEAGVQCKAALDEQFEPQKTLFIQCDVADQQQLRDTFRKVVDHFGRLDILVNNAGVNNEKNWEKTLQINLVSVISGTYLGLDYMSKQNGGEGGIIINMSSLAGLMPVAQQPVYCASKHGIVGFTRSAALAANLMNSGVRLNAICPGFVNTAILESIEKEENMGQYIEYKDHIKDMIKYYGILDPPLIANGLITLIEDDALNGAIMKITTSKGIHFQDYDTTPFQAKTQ

IC50 [nM] | SMILES
< 3 | Cn1c(=O)[nH]c(=O)c2ccc(-c3cccc4cc(C(=O)N5CCC(F)(F)CC5)cnc34)cc21 [compound 159]
< 3 | O=C(c1cnc2c(-c3ccn4c(=O)ccnc4c3)cccc2c1)N1CCC(F)(F)CC1 [compound 160]
< 3 | CS(=O)(=O)CCn1ncc2cc(-c3cccc4cc(C(=O)N5CCC(F)(F)CC5)ccc34)ccc2c1=O [compound 161]
< 3 | NCCn1ncc2cc(-c3cccc4cc(C(=O)N5CCC(F)(F)CC5)ccc34)ccc2c1=O [compound 162]
< 3 | Cn1cnc2cc(-c3cccc4cc(C(=O)N5CCC(F)(F)CC5)cnc34)ccc2c1=O [compound 164]
< 3 | Cc1n[nH]c(=O)c2ccc(-c3cccc4cc(C(=O)N5CCC(F)(F)CC5)cnc34)cc12 [compound 165]
3 to 10 | CN(C)C(=O)c1ccc2c(-c3ccn4c(=O)n(C)nc4c3)cccc2c1 [compound 166]
